The target in data set [1] is T1, Recombinant human oxytocin receptors (Homo sapiens, UniProt P30559).
T1 construct: expressed in transfected cells; host or cells: CHO or HEK293 cells (membrane fraction)
T1 sequence (P30559 1-389): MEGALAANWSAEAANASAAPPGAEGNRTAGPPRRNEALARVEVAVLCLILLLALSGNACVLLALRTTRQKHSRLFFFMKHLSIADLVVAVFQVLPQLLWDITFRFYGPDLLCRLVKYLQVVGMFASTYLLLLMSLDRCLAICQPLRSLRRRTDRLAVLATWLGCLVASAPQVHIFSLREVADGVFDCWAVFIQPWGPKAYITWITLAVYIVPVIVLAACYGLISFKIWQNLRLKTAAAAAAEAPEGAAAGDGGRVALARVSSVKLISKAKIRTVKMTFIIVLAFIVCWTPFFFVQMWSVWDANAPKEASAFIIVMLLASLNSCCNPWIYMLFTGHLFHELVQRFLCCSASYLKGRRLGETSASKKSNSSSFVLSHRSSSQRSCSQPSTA
Put plainly: Oxytocin receptor binding assay ([125I]-oxytocin, membrane fraction). The note with it: recombinant human oxytocin receptors expressed in CHO or HEK293 cells, mean ± SEM. On the procedure:
i) Oxytocin receptor binding assay
Recombinant human oxytocin receptors were expressed in either CHO or HEK293 cells using standard molecular biological techniques. A membrane fraction was prepared and incubated in the presence of [^125 I]-oxytocin and varying concentrations of heptapeptide analogue. Membranes were then isolated by filtration and counted for radioactivity to determine oxytocin binding. An inhibition constant Ki was determined for the analogue.

Data set [2] is described as follows: Evaluation of stability in aqueous solution (HPLC). The note with it: Isotonic citrate/phosphate buffer, pH 4.5; stored at 50° C.; loss of peptide by HPLC.
Experimental: (§1) Solutions of the heptapeptide analogues of the present invention were prepared with compositions representative of aqueous formulations. The solutions were stored for several weeks at 50° C. and aliquots were withdrawn periodically for analysis by HPLC. Reference peptides were studied in parallel. Degradation was determined as the loss of peptide (% by weight per week), independent of the nature of the decomposition products.
For data set [3] the following is noted: pH 4.5.
Experimental: as §1
The next data set deals with myometrium. The data set is classed as in vivo, Sprague Dawley rats. The note with it: for ID50, rat model: in vivo. Here is the method:
Sprague Dawley rats (ca. 250 g) in natural estrus were anaesthetised with Inactin (0.5 mg/100 g body weight, i.p.). The activity of the myometrium was measured with the aid of a catheter fixed in the uterine cavity and filled with modified Lockes solution. The catheter was connected to a Statham P23D force transducer and the contractions were recorded on a Grass polygraph (model 7D).
The dose-response curve for oxytocin (2×10^-4 -5×10^-3 μmol/kg) was recorded. In this case the response was quantified by integration of the curve during the 15 minutes following agonist injection. A dose of oxytocin giving an effect corresponding to an intralumenar contraction pressure of 10-30 mm Hg and within the linear section of the curve was selected. This dose of oxytocin was administered to the animal in conjunction with at least two different doses of antagonist and the effect was recorded. The dose of antagonist which reduces the effect of the agonist to 50% of tis control value was determined by interpolation and is given here as an ID50 value. [ID50 value=dose of antagonist required to reduce the effect of a given agonist dose by 50%].
The duration of action of the antagonists was also determined in this model. An oxytocin dose was selected (2×10^-4 -5×10^-3μmol/kg) giving an effect corresponding to half the maximum effect (this dose is the ED50). The effect determined here is the same as for the ID50 determination defined above. An antagonist dose was selected (8×10^-4 -4×10^-3 μmol/kg) so as to give at least 50% inhibition of the response to the agonist. At the beginning of the experiment, single doses of the agonist and antagonist were co-administered. At 20 minute intervals thereafter, doses of the agonist alone were administered and the response was measured. […] [t75 value=time period required for the effectiveness of a single dose to decline by 75%].

Data set [4] concerns Uterus muscle tissue from women in late pregnancy. As to the kind of experiment: Antagonist effect in vitro in a human uterus model (oxytocin-induced contraction of uterus muscle strips). The note with it: concentration of antagonist reducing the oxytocin response to 50% of control; isolated human uterus strips. The data set is classed as cell-based. Here is the method: ii) Antagonist effect in vitro in a human uterus model
Uterus muscle tissue from women in late pregnancy undergoing Caesarean section was cut into strips which were mounted in a tissue bath filled with Krebs-Ringer buffer and oxygenated with carbogen (95% O2 +5% CO2) gas. Changes in isometric muscle tension detected with a tension transducer were recorded on a Grass polygraph.
The concentration-effect curve of oxytocin was recorded. The effect measured in this case corresponds to the net value of the integrated contraction curve during the 10 minute period following agonist (i.e. oxytocin) administration. A concentration of oxytocin giving at least half-maximal response was selected. This concentration of agonist was administered to the tissue in the presence of different concentrations of antagonist heptapeptide analogue and the response was recorded. The concentration of antagonist required to reduce the response to 50% of its control value was determined by regression analysis and is given here as an IC50 value. [IC50 value=concentration of antagonist required to reduce the effect of a given agonist dose by 50%].

Read-outs that look alike come from different tables or passages of the source. *1 amine or outer side, *2 acyl side, *3 side chain or, on linkers, in order; H or OH if unused. Where a SMILES comes first, the peptide text is derived from it. Bridges are numbered along the chain shown (N, C = ends). [ ]: non-standard residue; d: D form. ξ: configuration not given here. d2Nal = N[C@H](Cc1ccc2ccccc2c1)C(=O)O; aIle = CC[C@@H](C)[C@H](N)C(=O)O; hCys = N[C@@H](CCS)C(=O)O; ξNMeOrn = CNC(CCCN)C(=O)O; X1 = O=C(CC[*:2])[*:1]

As usually defined, the Ki is a measure of affinity in units of concentration, obtained from inhibition or displacement. For the compound `CCC(CC)[C@@H]1NC(=O)[C@H]([C@@H](C)CC)NC(=O)[C@@H](Cc2c[nH]c3ccccc23)NC(=O)CCSCC[C@@H](C(=O)N(C)[C@H](CO)CCCN)NC(=O)[C@H](CC(N)=O)NC1=O` [VII], the Ki in data set [1] was 2.4 ± 0.85 nM.
Consider `CC[C@H](C)[C@@H]1NC(=O)[C@@H](Cc2c[nH]c3ccccc23)NC(=O)CCSCC[C@@H](C(=O)N(C)C(CCCN)C(N)=O)NC(=O)[C@H](CC(N)=O)NC(=O)[C@H](C(C)C)NC1=O` (some centres unmarked) [r-X] ([dW]IVN[hCys][ξNMeOrn]-NH2; linker N-5 via X1), for which the “Degradation at 50° C. (wt %/week)” value in data set [2] is listed as 4.3 wt %/week.
With `CC[C@H](C)[C@@H]1NC(=O)[C@H]([C@@H](C)CC)NC(=O)[C@@H](Cc2c[nH]c3ccccc23)NC(=O)CCSCC[C@@H](C(=O)N(C)[C@H](CO)CCCN)NC(=O)[C@H](CC(N)=O)NC1=O` [V], in data set [1], the Ki worked out at 1.4 ± 0.15 nM.
On to `CC[C@H](C)[C@@H]1NC(=O)[C@@H](Cc2c[nH]c3ccccc23)NC(=O)CCSCC[C@@H](C(=O)N(C)[C@H](CO)CCCN)NC(=O)[C@H](CC(N)=O)NC(=O)[C@H](CC(C)C)NC1=O` [II], for which the inhibition constant (Ki) in data set [1] is 3.2 ± 0.75 nM.
`CC[C@@H](C)[C@@H]1NC(=O)[C@H]([C@@H](C)CC)NC(=O)[C@@H](Cc2ccc3ccccc3c2)NC(=O)CCSCC[C@@H](C(=O)N(C)C(CCCN)C(N)=O)NC(=O)[C@H](CC(N)=O)NC1=O` (some centres unmarked) [r-XI] ([d2Nal]I[aIle]N[hCys][ξNMeOrn]-NH2; linker N-5 via X1): the “Degradation at 50° C. (wt %/week)” value in data set [2] came to 4.0 wt %/week.
For the compound `CC[C@H](C)[C@@H]1NC(=O)[C@@H](Cc2c[nH]c3ccccc23)NC(=O)CCSCC[C@@H](C(=O)N(C)[C@H](CO)CCCN)NC(=O)[C@H](CC(N)=O)NC(=O)[C@H](CC2CCCCC2)NC1=O` [IV], in data set [1], the Ki was 7 ± 1.85 nM.
`CC[C@H](C)[C@@H]1NC(=O)[C@@H](Cc2c[nH]c3ccccc23)NC(=O)CCSCC[C@@H](C(=O)N(C)[C@H](CO)CCCN)NC(=O)[C@H](CC(N)=O)NC(=O)[C@H](C(C)C)NC1=O` [III]: in data set [1], the Ki was 0.8 ± 0.3 nM. Besides, the “Degradation at 50° C. (wt %/week)” value in data set [3] is given as 0.7 wt %/week.
With `CC[C@@H](C)[C@@H]1NC(=O)[C@H]([C@@H](C)CC)NC(=O)[C@@H](Cc2ccc3ccccc3c2)NC(=O)CCSCC[C@@H](C(=O)N(C)[C@H](CO)CCCN)NC(=O)[C@H](CC(N)=O)NC1=O` [VI], in data set [1], the inhibition constant Ki came to 0.1 nM. Further, in data set [3], the “Degradation at 50° C. (wt %/week)” value amounted to 1.2 wt %/week.
Broadly, the IC50 is the concentration that gives 50% inhibition. A low value points to inhibition by little substance. `CC[C@@H](C)[C@@H]1NC(=O)[C@H]([C@@H](C)CC)NC(=O)[C@@H](Cc2c[nH]c3ccccc23)NC(=O)CCSCC[C@@H](C(=O)N(C)[C@H](CO)CCCN)NC(=O)[C@H](CC(N)=O)NC1=O` [Peptide I]: the “t75, rat model” value in the data set with myometrium (duration of action: time for the effectiveness of a single dose to decline by 75%, antagonist dose 8×10^-4 -4×10^-3 μmol/kg) was 169 ± 2 min. Moreover, the “ID50, rat model” value in the data set on myometrium is listed as 2.9 ± 0.3 nmol/kg. Also, the Ki in data set [1] came out at 0.25 ± 0.16 nM. Besides, the IC50 in data set [4] is 5 ± 1 nM. The “Degradation at 50° C. (wt %/week)” value in data set [3] turned out to be 0.4 wt %/week.
With `CC[C@@H](C)[C@@H]1NC(=O)[C@H]([C@@H](C)CC)NC(=O)[C@@H](Cc2c[nH]c3ccccc23)NC(=O)CCSCC[C@@H](C(=O)N(C)C(CCCN)C(N)=O)NC(=O)[C@H](CC(N)=O)NC1=O` (some centres unmarked) [r-IX, reference compound] ([dW]I[aIle]N[hCys][ξNMeOrn]-NH2; linker N-5 via X1), the “ID50, rat model” value in the data set on myometrium came out at 2.9 ± 0.3 nmol/kg. In addition, in data set [2], the “Degradation at 50° C. (wt %/week)” value was 2.9 wt %/week.

Source of the values: patent US6143722A, “Heptapeptide oxytocin analogues” (Ferring, B.V., priority 1996, dated 2000).
